Series [1] concerns the target recombinant human CHIT1 (Homo sapiens (Human), UniProt Q13231). Put plainly: Human CHIT1 activity assay. Format: biochemical. The settings on record: recombinant human CHIT1, citrate buffer pH 5.2, 37° C., 60 minutes; read-out: hCHIT1, IC50. How it is done:
(§1) The assay was run in the 96-well plate format, each reaction in the total volume of 100 μL. 4-methylumbelliferyl β-D-N,N′,N″-triacetylchitotriose was used as a substrate for the enzyme. Upon hydrolysis by CHIT1, the substrate releases 4-methylumbelliferyl (4MU) that, when ionized in basic pH, emits fluorescence at 460 nm. Briefly, 40 μL of a substrate was added to each well, followed by 10 μL of compound dilution and 50 μL of CHIT1 recombinant enzyme solution. The reaction was carried out in citrate buffer, pH 5.2, in the dark, at 37° C. for 60 minutes with shaking. […] The IC50 values were calculated using GraphPad Prism.

Series [2] concerns the target recombinant human AMCase (Homo sapiens (Human), UniProt Q9BZP6). Put plainly: Human AMCase activity assay. Conditions: citrate buffer pH 5.2, 37° C., 60 minutes, read-out: hAMCase, IC50. The series is classed as biochemical. How it is done: as §1, with “4-Methylumbelliferyl B-D-N,N′-diacetylchitobioside hydrate” for “4-methylumbelliferyl β-D-N,N′,N″-triacetylchitotriose”, “AMCase,” for “CHIT1,”, “hAMCase” for “CHIT1”

The target in series [3] is hERG channel (Homo sapiens (Human), UniProt Q12809). The series can be described thus: Human ERG channel binding assay (fluorescence polarization). Conditions: Table 1; tracer displacement, 4 h at room temperature. How it is done: Human ERG Channel Binding Assay
Fluorescence polarization assay based on the principle of fluorescence polarization where a red-shifted fluorescent tracer is displaced from the hERG channel by compounds that bind to the channel was used to establish the binding of the compounds to hERG channel. […] Briefly, the compounds in serial dilutions were incubated with a membrane fraction containing hERG channel protein and a high-affinity red fluorescent hERG channel ligand in black 384-well plate. […] The IC50 values were calculated using GraphPad Prism.

Counter-ions that a name gives are not always drawn. Where only a bound is given, the exact number is not on record here.

Our source for the IC50 values is patent publication US11638707B2, “Substituted amino triazoles useful as chitinase inhibitors” (Molecure S.A., priority 2019, dated 2023).

Chain of recombinant human CHIT1 (Q13231 22-466): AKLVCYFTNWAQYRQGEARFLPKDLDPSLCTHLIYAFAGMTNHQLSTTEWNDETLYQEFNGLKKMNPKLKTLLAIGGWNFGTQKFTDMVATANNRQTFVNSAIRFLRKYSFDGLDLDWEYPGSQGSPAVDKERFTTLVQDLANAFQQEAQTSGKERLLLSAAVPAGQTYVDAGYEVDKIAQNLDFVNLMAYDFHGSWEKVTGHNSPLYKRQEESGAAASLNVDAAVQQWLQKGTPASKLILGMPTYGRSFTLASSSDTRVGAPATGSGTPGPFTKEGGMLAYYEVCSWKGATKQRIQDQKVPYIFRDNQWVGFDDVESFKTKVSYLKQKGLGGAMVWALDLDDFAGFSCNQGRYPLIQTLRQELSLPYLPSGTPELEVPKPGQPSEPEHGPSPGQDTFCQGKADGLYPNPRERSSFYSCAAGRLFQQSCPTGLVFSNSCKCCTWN
Chain of hERG channel (Q12809 whole entry): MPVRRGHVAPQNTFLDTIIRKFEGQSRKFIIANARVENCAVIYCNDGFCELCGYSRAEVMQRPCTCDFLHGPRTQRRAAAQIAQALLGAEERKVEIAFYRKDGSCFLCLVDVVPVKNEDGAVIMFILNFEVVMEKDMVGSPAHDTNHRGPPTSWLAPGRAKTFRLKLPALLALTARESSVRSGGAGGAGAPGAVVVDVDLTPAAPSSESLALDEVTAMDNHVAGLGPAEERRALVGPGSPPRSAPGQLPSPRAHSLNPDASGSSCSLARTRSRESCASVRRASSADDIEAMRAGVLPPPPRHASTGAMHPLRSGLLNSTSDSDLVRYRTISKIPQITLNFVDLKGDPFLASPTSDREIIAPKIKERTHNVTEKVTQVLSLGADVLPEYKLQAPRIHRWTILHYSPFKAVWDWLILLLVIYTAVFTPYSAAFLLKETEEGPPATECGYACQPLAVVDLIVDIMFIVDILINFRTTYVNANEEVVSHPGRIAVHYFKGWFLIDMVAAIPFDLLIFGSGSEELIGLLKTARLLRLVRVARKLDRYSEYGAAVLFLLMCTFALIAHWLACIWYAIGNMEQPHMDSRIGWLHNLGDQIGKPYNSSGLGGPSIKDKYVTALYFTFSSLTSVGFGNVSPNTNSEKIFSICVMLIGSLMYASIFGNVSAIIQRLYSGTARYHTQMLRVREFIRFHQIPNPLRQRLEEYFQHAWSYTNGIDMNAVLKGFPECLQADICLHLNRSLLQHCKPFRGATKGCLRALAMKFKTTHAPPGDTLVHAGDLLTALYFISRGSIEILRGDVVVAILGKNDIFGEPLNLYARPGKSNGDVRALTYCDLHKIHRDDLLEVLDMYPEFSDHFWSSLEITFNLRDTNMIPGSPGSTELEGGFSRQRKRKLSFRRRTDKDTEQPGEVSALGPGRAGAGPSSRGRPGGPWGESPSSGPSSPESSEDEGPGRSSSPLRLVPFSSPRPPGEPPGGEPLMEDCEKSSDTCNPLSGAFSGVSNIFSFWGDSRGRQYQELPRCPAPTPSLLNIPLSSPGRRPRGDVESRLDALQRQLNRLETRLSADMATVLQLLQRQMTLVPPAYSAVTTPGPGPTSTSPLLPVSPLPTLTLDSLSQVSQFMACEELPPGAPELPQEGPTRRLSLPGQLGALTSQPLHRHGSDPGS
Chain of recombinant human AMCase (Q9BZP6 22-476): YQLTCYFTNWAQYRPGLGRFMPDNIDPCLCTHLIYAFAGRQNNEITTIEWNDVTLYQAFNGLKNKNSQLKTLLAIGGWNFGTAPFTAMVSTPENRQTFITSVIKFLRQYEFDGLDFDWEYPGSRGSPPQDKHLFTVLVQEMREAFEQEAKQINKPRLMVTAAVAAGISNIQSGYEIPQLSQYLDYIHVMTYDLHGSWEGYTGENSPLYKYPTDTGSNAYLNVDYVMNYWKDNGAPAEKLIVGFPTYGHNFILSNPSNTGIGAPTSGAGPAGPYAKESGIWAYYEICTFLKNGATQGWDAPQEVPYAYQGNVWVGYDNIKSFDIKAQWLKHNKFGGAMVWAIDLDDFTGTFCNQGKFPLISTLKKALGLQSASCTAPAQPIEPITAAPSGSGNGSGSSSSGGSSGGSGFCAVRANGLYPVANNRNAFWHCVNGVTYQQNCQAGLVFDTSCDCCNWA

What is called IC50 is the concentration at which inhibition is half-maximal. Regarding `Nc1nnc(N2CCC(N3C[C@H]([C@@H](O)C(F)(F)F)OC[C@@H]3Cc3ccc(Cl)cc3)CC2)[nH]1` [Example 17, (R)-1-((2R,5S)-4-(1-(5-amino-4H-1,2,4-triazol-3-yl)piperidin-4-yl)-5-(4-chlorobenzyl)morpholin-2-yl)-2,2,2-trifluoroethanol 2,2,2-trifluoroacetate], the IC50 in series [1] was less than 100 nM; in series [2], less than 100 nM; in series [3], 25000 to 100000 nM.

For `Nc1nnc(N2CCC(N3C[C@H](Cn4ccnn4)OC[C@@H]3Cc3ccc(Cl)cc3)CC2)[nH]1` [Example 21, 5-(4-((2R,5S)-2-((1H-1,2,3-triazol-1-yl)methyl)-5-(4-chlorobenzyl)morpholino)-piperidin-1-yl)-4H-1,2,4-triazol-3-amine 2,2,2-trifluoroacetate], the IC50 was less than 100 nM in series [1], less than 100 nM in series [2] and 25000 to 100000 nM in series [3].

Consider `Cc1cc([C@H]2CN(C3CCN(c4nnc(N)[nH]4)CC3)[C@@H](Cc3ccc(Cl)cc3)CO2)on1` [Example 22, 5-(4-((2R,5S)-5-(4-chlorobenzyl)-2-(3-methylisoxazol-5-yl)morpholino)piperidin-1-yl)-4H-1,2,4-triazol-3-amine 2,2,2-trifluoroacetate], for which the IC50 in series [1] was less than 100 nM; in series [2], less than 100 nM; in series [3], more than 100000 nM.

Turning to `CC1(C)CC1NC(=O)[C@H]1CN(C2CCN(c3nnc(N)[nH]3)CC2)[C@@H](Cc2ccc(Cl)cc2)CO1` (stereo partly drawn) [Example 23, (2R,5S)-4-(1-(5-amino-4H-1,2,4-triazol-3-yl)piperidin-4-yl)-5-(4-chlorobenzyl)-N-(2,2-dimethylcyclopropyl)morpholine-2-carboxamide 2,2,2-trifluoroacetate], the half-inhibitory concentration (IC50) in series [1] is less than 100 nM; in series [2] it was less than 100 nM; in series [3], more than 100000 nM.

Take `Nc1nnc(N2CCC(N3C[C@H](C(=O)NC4CC4)OC[C@@H]3Cc3ccc(Cl)cc3)CC2)[nH]1` [Example 24, (2R,5S)-4-(1-(5-amino-4H-1,2,4-triazol-3-yl)piperidin-4-yl)-5-(4-chlorobenzyl)-N-cyclopropylmorpholine-2-carboxamide 2,2,2-trifluoroacetate]: the concentration for half-maximal inhibition (IC50) in series [1] was less than 100 nM; in series [2], less than 100 nM; in series [3], more than 100000 nM.

`Nc1nnc(N2CCC(N3C[C@H](C(=O)NCC(F)F)OC[C@@H]3Cc3ccc(Cl)cc3)CC2)[nH]1` [Example 25, (2R,5S)-4-(1-(5-amino-4H-1,2,4-triazol-3-yl)piperidin-4-yl)-5-(4-chlorobenzyl)-N-(2,2-difluoroethyl)morpholine-2-carboxamide 2,2,2-trifluoroacetate]: the 50% inhibitory concentration (IC50) in series [1] is less than 100 nM; in series [2], less than 100 nM; in series [3] it was more than 100000 nM.

With `Nc1nnc(N2CCC(N3C[C@H](C(=O)NCC(F)(F)F)OC[C@@H]3Cc3ccc(Cl)cc3)CC2)[nH]1` [Example 26, (2R,5S)-4-(1-(5-amino-4H-1,2,4-triazol-3-yl)piperidin-4-yl)-5-(4-chlorobenzyl)-N-(2,2,2-trifluoroethyl)morpholine-2-carboxamide 2,2,2-trifluoroacetate], the IC50 was 100 to 1000 nM in series [1], less than 100 nM in series [2] and more than 100000 nM in series [3].

Take `Nc1nnc(N2CCC(N3C[C@H](Cn4cncn4)OC[C@@H]3Cc3ccc(Cl)cc3)CC2)[nH]1` [Example 27, 5-(4-((2R,5S)-2-((1H-1,2,4-triazol-1-yl)methyl)-5-(4-chlorobenzyl)morpholino)piperidin-1-yl)-4H-1,2,4-triazol-3-amine 2,2,2-trifluoroacetate]: the IC50 in series [1] was less than 100 nM; in series [2] it was less than 100 nM; in series [3], more than 100000 nM.

Consider `Nc1nnc(N2CCC(N3C[C@H](CN4CCCC4)OC[C@@H]3Cc3ccc(Cl)cc3)CC2)[nH]1` [Example 28, 5-(4-((2S,5S)-5-(4-chlorobenzyl)-2-(pyrrolidin-1-ylmethyl)morpholino)piperidin-1-yl)-4H-1,2,4-triazol-3-amine 2,2,2-trifluoroacetate], for which the IC50 was less than 100 nM in series [1], less than 100 nM in series [2] and more than 100000 nM in series [3].

Regarding `Nc1nnc(N2CCC(N3C[C@H](CN4CCC(F)(F)C4)OC[C@@H]3Cc3ccc(Cl)cc3)CC2)[nH]1` [Example 29, 5-(4-((2S,5S)-5-(4-chlorobenzyl)-2-((3,3-difluoropyrrolidin-1-yl)methyl)-morpholino)piperidin-1-yl)-4H-1,2,4-triazol-3-amine 2,2,2-trifluoroacetate], the IC50 in series [1] was less than 100 nM; in series [2], less than 100 nM; in series [3], more than 100000 nM.

For `Nc1nnc(N2CCC(N3C[C@H](CN4CC[C@H](O)C4)OC[C@@H]3Cc3ccc(Cl)cc3)CC2)[nH]1` [Example 30, (S)-1-(((2S,5S)-4-(1-(5-amino-4H-1,2,4-triazol-3-yl)piperidin-4-yl)-5-(4-chlorobenzyl)morpholin-2-yl)methyl)pyrrolidin-3-ol 2,2,2-trifluoroacetate], the IC50 was 100 to 1000 nM in series [1], less than 100 nM in series [2] and more than 100000 nM in series [3].

Turning to `Nc1nnc(N2CCC(N3C[C@H](CN4CC[C@@H](O)C4)OC[C@@H]3Cc3ccc(Cl)cc3)CC2)[nH]1` [Example 31, (R)-1-(((2S,5S)-4-(1-(5-amino-4H-1,2,4-triazol-3-yl)piperidin-4-yl)-5-(4-chlorobenzyl)morpholin-2-yl)methyl)pyrrolidin-3-ol 2,2,2-trifluoroacetate], the IC50 in series [1] was 100 to 1000 nM; in series [2], less than 100 nM; in series [3], more than 100000 nM.

Consider `C[S+]([O-])C[C@H]1CN(C2CCN(c3nnc(N)[nH]3)CC2)[C@@H](Cc2ccc(Cl)cc2)CO1` (stereo partly drawn) [Example 32, 5-(4-((2R,5S)-5-(4-chlorobenzyl)-2-((methylsulfinyl)methyl)morpholino)piperidin-1-yl)-4H-1,2,4-triazol-3-amine dihydrochloride], for which the values for the IC50 in series [1], in series [2] and in series [3] were less than 100 nM, less than 100 nM and more than 100000 nM, respectively.

As for `CS(=O)(=O)C[C@H]1CN(C2CCN(c3nnc(N)[nH]3)CC2)[C@@H](Cc2ccc(Cl)cc2)CO1` [Example 33, 5-(4-((2R,5S)-5-(4-chlorobenzyl)-2-((methylsulfonyl)methyl)morpholino)piperidin-1-yl)-4H-1,2,4-triazol-3-amine dihydrochloride], the IC50 in series [1] is less than 100 nM; in series [2], less than 100 nM; in series [3] it was more than 100000 nM.

For the compound `Cc1cc([C@H]2CN(C3CCN(c4nnc(N)[nH]4)CC3)[C@@H](Cc3ccc(Cl)cc3)CO2)[nH]n1` [Example 34, 5-(4-((2R,5S)-5-(4-chlorobenzyl)-2-(3-methyl-1H-pyrazol-5-yl)morpholino)-piperidin-1-yl)-4H-1,2,4-triazol-3-amine 2,2,2-trifluoroacetate], the IC50 is less than 100 nM in series [1], less than 100 nM in series [2] and 25000 to 100000 nM in series [3].

With `Nc1nnc(N2CCC(N3C[C@H](Cn4cc(F)cn4)OC[C@@H]3Cc3ccc(Cl)cc3)CC2)[nH]1` [Example 36, 5-(4-((2R,5S)-5-(4-chlorobenzyl)-2-((4-fluoro-1H-pyrazol-1-yl)methyl)-morpholino)piperidin-1-yl)-4H-1,2,4-triazol-3-amine 2,2,2-trifluoroacetate], the values for the IC50 in series [1], in series [2] and in series [3] were less than 100 nM, less than 100 nM and 10000 to 25000 nM, respectively.

As to `Nc1nnc(N2CCC(N3C[C@H](CN4CC(F)C4)OC[C@@H]3Cc3ccc(Cl)cc3)CC2)[nH]1` [Example 37, 5-(4-((2S,5S)-5-(4-chlorobenzyl)-2-((3-fluoroazetidin-1-yl)methyl)morpholino)-piperidin-1-yl)-4H-1,2,4-triazol-3-amine 2,2,2-trifluoroacetate], the IC50 in series [1] was less than 100 nM; in series [2] it was less than 100 nM; in series [3], 25000 to 100000 nM.

`Nc1nnc(N2CCC(N3C[C@H](COCC(F)(F)F)OC[C@@H]3Cc3ccc(Cl)cc3)CC2)[nH]1` [Example 39, 5-(4-((2R,5S)-5-(4-chlorobenzyl)-2-((2,2,2-trifluoroethoxy)methyl)morpholino)-piperidin-1-yl)-4H-1,2,4-triazol-3-amine 2,2,2-trifluoroacetate]: the IC50 in series [1] is less than 100 nM; in series [2], less than 100 nM; in series [3], 1000 to 10000 nM.

In the case of `CSC[C@H]1CN(C2CCN(c3nnc(N)[nH]3)CC2)[C@@H](Cc2ccc(Cl)cc2)CO1` [Example 41, 5-(4-((2R,5S)-5-(4-chlorobenzyl)-2-((methylthio)methyl)morpholino)piperidin-1-yl)-4H-1,2,4-triazol-3-amine dihydrochloride], the half-inhibitory concentration (IC50) in series [1] is less than 100 nM; in series [2] it was less than 100 nM; in series [3] it was 25000 to 100000 nM.
